The values below come from patent publication US20100144652A1, “COMPOSITION COMPRISING A GLYCOLYTIC INHIBITOR AND A RING SYSTEM COMPRISING A SULPHAMATE GROUP FOR THE TREATMENT OF CANCER” (Sterix Limited, priority 2007, published 2010).

The conditions of data set [1]: cited from earlier work.
In data set [2] the target is T1, steroid sulphatase (Homo sapiens, UniProt P08842).
T1 sequence (P08842 22-583): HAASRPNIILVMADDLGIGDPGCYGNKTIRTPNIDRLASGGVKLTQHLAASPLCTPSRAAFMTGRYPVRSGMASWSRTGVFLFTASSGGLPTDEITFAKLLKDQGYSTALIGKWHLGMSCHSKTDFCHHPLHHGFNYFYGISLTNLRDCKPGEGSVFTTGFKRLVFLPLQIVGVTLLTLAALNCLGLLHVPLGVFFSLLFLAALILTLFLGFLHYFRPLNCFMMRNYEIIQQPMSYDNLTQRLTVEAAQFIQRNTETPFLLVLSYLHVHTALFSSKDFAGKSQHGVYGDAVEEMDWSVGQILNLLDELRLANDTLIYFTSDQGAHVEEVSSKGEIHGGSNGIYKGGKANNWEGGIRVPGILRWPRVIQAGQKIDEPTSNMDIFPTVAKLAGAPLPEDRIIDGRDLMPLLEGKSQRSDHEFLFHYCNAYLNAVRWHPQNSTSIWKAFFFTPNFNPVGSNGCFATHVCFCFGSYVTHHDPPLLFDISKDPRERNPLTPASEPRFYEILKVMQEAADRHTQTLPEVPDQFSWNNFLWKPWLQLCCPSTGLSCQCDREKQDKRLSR
To be noted: compared with EMATE; cited from earlier work.

The subject of data set [3] is LNCaP cells. Briefly: Proliferation assay (Alamar blue, microtiter plate). It counts as cell-based. The note with it: Homo sapiens; for inhibition at 8000 µM: 2DG alone 8 mM, read-out: inhibition of cell growth. How it is done: (§1) MCF-7 and LNCaP cells were obtained from the American Tissue Culture Collection (ATCC). Cells were cultured in the following supplements, obtained from Sigma: RPMI 1640 with 10% foetal bovine serum, 1% L-glutamine, 1% MEM non-essential amino acids, 1% sodium bicarbonate solution, LNCaP cells also required 1% sodium pyruvate. Cells were maintained in an incubator at 37° C. under 5% CO2 and 95% air atmosphere.
(§2) MCF-7 and LNCaP cells were seeded at 3000 cells/well or 5000 cells/well respectively, in 96 well plates. Compounds were added 4 hours after seeding of cells. […]
(§3) An Innova co-48 CO2 humidified incubator (Newbrunswick Scientific, St. Albans, U.K.) was used to study the effects of 2DG and STX140 on cells under hypoxic conditions. Oxygen was maintained at 1%, CO2 5% and temperature at 37° C.
For orientation: Resazurin is reduced to fluorescent resorufin, in cell work by metabolically active cells.

In data set [4] the test system is MCF-7 cells. The data set is described as above. Format: cell-based. The note with it: Homo sapiens; for inhibition at 8000 µM / inhibition at 0.5 µM: MCF7, 72 h; for inhibition at 8000 µM: MCF-7, 2DG alone 8 mM, 72 h, read-out: inhibition of cell growth. Here is the method:
as §1, §2, §3

For data set [5], the system named is LNCaP cells. Briefly: Measurement of ATP (ATPlite assay). It counts as cell-based. The note with it: 2DG 8 mM, 72 h; for ATP levels: normoxia or hypoxia, STX140 0.1 μM-1 μM, vs untreated normoxic controls. How it is done:
as §3
(§4) MCF-7 and LNCaP cells were seeded at 3000 cells/well or 5000 cells/well respectively, in 96 well plates. Compounds were added 4 hours following seeding of cells. The ATPlite assay procedure was carried out according to manufacturer's instructions (Perkin Elmer, Beaconsfield, U.K.) and ATP measured 72 hrs later using a FluoStar Optima Plate reader.
Background: ATP-based viability assays read luminescence as a measure of living cells.

In data set [6] the test system is MCF-7 cells. Briefly: Measurement of ATP (ATPlite assay). It counts as cell-based. To be noted: for ATP levels: MCF-7, 72 h, normoxia or hypoxia, 2DG 8 mM, STX140 0.1 μM-1 μM, vs untreated normoxic controls. Here is the method: as §3, §4
For data set [7], the system named is LNCaP cells. The data set can be described thus: Cell morphology (microscopy). It counts as cell-based. The note with it: STX140 0.5 μM, 2DG 8 mM, 96 h, normoxia. The text has this:
(§5) Cells were examined using a Zeiss inverted microscope fitted with a 20× and 40× Plan-Neofluor objective, and analysed through an Axiovision imaging system attached to the microscope.

The subject of data set [8] is MCF-7 cells. Briefly: Cell morphology (microscopy). It counts as cell-based. To be noted: MCF-7, STX140 0.5 μM, 2DG 8 mM, 96 h, normoxia.
Source text: as §5

In data set [9] the test system is MCF-7 tumours. The data set can be described thus: In vivo tumour xenograft model, MCF-7 cell tumours. To be noted: athymic nude mice, STX140 5 mg/kg p.o. daily, 2DG 2 g/kg i.p. daily, 28 days, compared to control. Here is the method:
Intact, ovariectomized, athymic, female MF-1 nude mice (nu-/nu-) were purchased from Harlan (Bicester, Oxon, UK) at 5 weeks of age (˜20-25 g in weight). All experiments were carried out under conditions that complied with institutional guidelines. Animals were kept in a 12-hour light/12-hour dark cycle and given food and water ad libitum. Monolayers of MCF-7 cells were removed by trypsinization, and the resultant cell suspension was centrifuged for 5 min. at 1,000×g and then resuspended in ice-cold matrigel (BD Biosciences). Five million MCF-7 cells were injected s.c. into the right flank of the animals. The tumours were allowed to grow for 2 weeks, when the tumours reached 100-150 mm^3 in volume, mice were randomly divided into four treatment groups: 1) vehicle (10% tetrahydrofuran; 90% propylene glycol, […] oral)+saline i.p. 200 ml; 2) vehicle+2DG (2 g/kg) i.p. 200 ml; 3) STX140 (5 mg/kg) […] oral+saline i.p. 200 ml; 4) STX140 (5 mg/kg) […] oral+2DG (2 g/kg) i.p. 200 ml. All treatments were administered daily for 4 weeks, […]. Throughout the study, mice were weighed and tumour measurements were taken on a weekly basis. Tumour volumes were calculated using the formula: length×width^2/2. At the end of the study, tumours were collected for immunohistochemical analysis.

Data set [10] has as its system von Willebrand's factor. The data set can be described thus: von Willebrand's factor immunohistochemistry of xenograft sections (vessel density). Format: in vivo, mice. The note with it: sections of MCF-7 xenografts, STX140 5 mg/kg p.o. daily, 2DG 2 g/kg i.p. daily.
Data set [11] has as its system r^□ cells which have lost their mitochondrial DNA. The note with it: Liu et al., 2001; cited from earlier work.
In data set [12] the test system is MCF-7 cells. The note with it: MCF-7, previously calculated by Day and Newman; read-out: IC50, inhibition of proliferation; cited from earlier work.
Data set [13] relates to LNCaP cells. The note with it: previously calculated by Day and Newman, read-out: IC50, inhibition of proliferation; cited from earlier work.
The subject of data set [14] is breast cancer cells. To be noted: Raobaikady et al., 2003; cited from earlier work.
Data set [15] has as its system HUVEC cells. The note with it: Newman et al., 2004; cited from earlier work.
The subject of data set [16] is vessel formation. The note with it: novel co-culture model system, Newman et al., 2004; cited from earlier work.
Data set [17] deals with p-glycoprotein (Homo sapiens, UniProt P08183). The note with it: Suzuki, 2003; cited from earlier work.
For data set [18] the following is noted: cited from earlier work. This is another data set of the same source.

“Also recorded” adds a separate entry of the source. Where two headings read alike, the source gives them in different places.

Chain of p-glycoprotein (P08183 whole entry): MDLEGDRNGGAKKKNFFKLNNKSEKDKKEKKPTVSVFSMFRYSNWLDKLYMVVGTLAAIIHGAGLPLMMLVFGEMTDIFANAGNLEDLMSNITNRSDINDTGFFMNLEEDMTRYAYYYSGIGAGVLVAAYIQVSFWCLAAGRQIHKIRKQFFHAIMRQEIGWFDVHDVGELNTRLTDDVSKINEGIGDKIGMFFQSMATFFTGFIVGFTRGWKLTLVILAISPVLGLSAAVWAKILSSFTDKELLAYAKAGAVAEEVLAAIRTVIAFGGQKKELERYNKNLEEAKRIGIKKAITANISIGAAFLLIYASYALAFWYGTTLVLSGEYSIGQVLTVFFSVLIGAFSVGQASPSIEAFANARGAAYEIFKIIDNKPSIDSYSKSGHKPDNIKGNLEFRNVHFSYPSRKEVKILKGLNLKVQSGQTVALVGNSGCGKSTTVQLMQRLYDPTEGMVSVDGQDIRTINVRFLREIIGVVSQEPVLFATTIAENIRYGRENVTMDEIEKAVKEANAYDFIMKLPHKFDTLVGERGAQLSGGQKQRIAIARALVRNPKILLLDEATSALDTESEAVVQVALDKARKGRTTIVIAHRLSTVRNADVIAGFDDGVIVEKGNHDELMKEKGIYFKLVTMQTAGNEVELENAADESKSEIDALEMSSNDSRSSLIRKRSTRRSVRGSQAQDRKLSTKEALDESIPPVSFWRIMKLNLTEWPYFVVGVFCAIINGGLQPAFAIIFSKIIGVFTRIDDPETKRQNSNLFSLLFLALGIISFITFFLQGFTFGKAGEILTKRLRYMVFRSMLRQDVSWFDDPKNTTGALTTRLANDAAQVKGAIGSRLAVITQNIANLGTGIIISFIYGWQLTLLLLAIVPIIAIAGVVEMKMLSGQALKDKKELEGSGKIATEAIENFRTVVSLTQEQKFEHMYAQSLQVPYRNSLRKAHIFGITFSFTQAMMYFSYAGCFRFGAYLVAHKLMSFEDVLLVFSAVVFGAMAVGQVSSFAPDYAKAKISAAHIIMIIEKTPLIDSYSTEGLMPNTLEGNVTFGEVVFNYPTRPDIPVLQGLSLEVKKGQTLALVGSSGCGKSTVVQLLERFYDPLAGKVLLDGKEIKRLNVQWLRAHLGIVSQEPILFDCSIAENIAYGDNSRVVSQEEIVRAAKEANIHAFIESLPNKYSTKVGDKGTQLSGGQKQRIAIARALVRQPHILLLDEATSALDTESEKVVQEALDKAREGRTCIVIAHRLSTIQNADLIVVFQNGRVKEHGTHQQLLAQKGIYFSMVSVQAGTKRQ

Turning to `COc1cc2c(cc1OS(N)(=O)=O)CC[C@@H]1[C@@H]2CC[C@]2(C)C(=O)CC[C@@H]12` [2-methoxyoestrone-3-O-sulphamate], the oestrogenicity entry in data set [1] (rat, in vivo) was “devoid of oestrogenicity”. Further, in data set [2], the “potency as steroid sulphatase inhibitor” value was “equipotent with EMATE”.
`O=CC[C@@H](O)[C@H](O)[C@H](O)CO` [2DG, 2-deoxy-D-glucose]: the inhibition at 8000 µM in data set [3] (72 h, hypoxic, 72 h) is 75%; in [3] (72 h, normoxic, 72 h) it was 50%; in data set [4] (hypoxic), 70%; in data set [4] (normoxic) it was 50%. For the same molecule, the IC50 turned out to be 6700 µM in [3] (120 h, 5 day period, normoxic conditions, read-out: IC50, inhibition of proliferation) and 8100 µM in data set [4] (MCF7, 120 h, MCF-7, 5 day period, normoxic conditions, read-out: IC50, inhibition of proliferation). Further, the “ATP per living cell” value in data set [5] (vs untreated controls) is given as “significantly decreases ATP”; in [6] (MCF-7, 2DG 8 mM, 72 h, vs untreated controls), “significantly decreases ATP”. The ATP levels result in data set [5] and in data set [6] was “decreases ATP” each time. For the same molecule, the cell morphology entry in data set [7] and in data set [8] was “cells appear to swell up” each time. The “growth of MCF-7 tumours” value in data set [9] is “did not significantly inhibit tumour growth”. Moreover, the “von Willebrand's factor staining for endothelial cells (blood vessels)” value in data set [10] is reported as “no significant effect”. In addition, in data set [11], the “sensitivity of cells lacking mitochondrial DNA relative to wt cells” value is 10 times.
Consider `COc1cc2c(cc1OS(N)(=O)=O)CCC1C2CC[C@]2(C)C(OS(N)(=O)=O)CCC12` (stereo partly shown) [STX140, 2-Methoxyestradiol-3,17-O,O-bis-sulfamate], for which the IC50 was 0.316 µM in data set [3] (72 h, read-out: IC50, inhibition of proliferation, LNCaP, hypoxic, 72 h); 0.293 µM in data set [3] (72 h, read-out: IC50, inhibition of proliferation, LNCaP, normoxic, 72 h); 0.25 µM in data set [12]; 0.26 µM in data set [13]. Also, the inhibition at 0.5 µM in [3] (72 h, read-out: inhibition of cell proliferation) came to 65%; in data set [4] (read-out: inhibition of cell proliferation, MCF-7, STX140 0.5 μM, hypoxia, 72 h, vs normoxic untreated controls), 48%; in data set [4] (read-out: inhibition of cell proliferation, MCF-7, STX140 0.5 μM, normoxia, 72 h, vs normoxic untreated controls), 45%. Also, the ATP levels result in [5] and in [6] was “drops significantly” each time. The cell morphology entry in [7] and in data set [8] was “shrivelled appearance” in each case. Further, in [9] (5 mg/kg), the “growth of MCF-7 tumours” value was “significantly inhibited”. The “von Willebrand's factor staining for endothelial cells (blood vessels)” value in data set [10] (5 mg/kg) is “decrease in blood vessels; also recorded: significant reduction”. Moreover, the “potency as inhibitor of breast cancer cells compared to 2-MeOE2” value in data set [14] was 6 times. In addition, in data set [15], the “inhibition of proliferation of HUVEC cells compared to 2-MeOE2” value is given as 60 fold. The “activity as inhibitor of vessel formation compared to 2-MeOE2” value in data set [16] was 10-13 times. The substrate for p-glycoprotein entry in data set [17] was “not a substrate for p-glycoprotein”. The oral bioavailability result in data set [18] (literature (Ireson 2004)) is “orally bioavailable”.
Turning to `COc1cc2c(cc1O)CC[C@@H]1[C@@H]2CC[C@]2(C)[C@@H](O)CC[C@@H]12` [2-MeOE2, 2-methoxyoestradiol, reference compound], the oral bioavailability entry in data set [18] (in vivo, po) was “very poor oral bioavailability”.
As for `C[C@]12CC[C@@H]3c4ccc(OS(N)(=O)=O)cc4CC[C@H]3[C@@H]1CCC2=O` [EMATE, oestrone-3-O-sulphamate], in [1] (rats, oral), the “oral uterotrophic activity relative to estradiol” value is listed as 100 times.
